Data taken from patent publication US8058309B2, “Protein kinase modulators and therapeutic uses thereof” (Novotyr Therapeutics Ltd., priority 2006, dated 2011).
Entries after “also recorded” stand apart in the source; their conditions may differ.

Tests used:
YURIF = test: Proliferation assay YURIF; type: cell-based; details: Homo sapiens; Table 4; 72 hours incubation; read-out: Inhibition of human metastatic melanoma cells, YURIF IC50
Description: (§1) Various cancer cell lines (listed in table 1) were plated at a density of 1000-5000 cells/well in 96-well plates in 90111 growth medium containing 10% FCS, 100 units/ml penicillin and 100 μg/ml streptomycin. Inhibitors were added a day later in 10 μl of 1% DMSO in DDW to obtain final concentrations of 0, 0.1, 0.3, 1, 3, and 10 μM. The final concentration of DMSO (0.1% DMSO) was kept constant in all samples. Medium with inhibitors was refreshed a day and two days later. Following exposure of the cells to the inhibitors for 72 hours at 37° C., the cells were fixed in 0.5% gluteraldehyde in medium for 10 min, washed three times with DDW, once with 0.1M sodium borate buffer pH 8.5 and stained with 1% methylene blue dissolved in 0.1M borate buffer solution for 60 min. Excess dye was washed out and cell-bound dye was eluted with 200 μl/well of 0.1 M HCl. The optical density value was read at 620 nm in ELISA plate reader. The data was analyzed in Microsoft Excel, using the vehicle control as 100% proliferation. The assays were performed in triplicates. The values in table 1 represent IC50 values derived from the dose-dependent growth curves obtained.
(§2) Compounds 6, 7, 8, and 9 were tested for their inhibitory potential in cell proliferation assay. In this assay cells were exposed to increasing concentrations of the molecules (at 0.1% DMSO in all wells) a day after seeding. Medium and inhibitors were refreshed every day, and following three days of treatment, cells were fixed and stained with methylene-Blue. IC50 values were determined from the curves of the optical density against compound concentration. The assay was performed in triplicates.

IRS1 [1] = test: IRS1 Ser-phosphorylation and IRS1 levels in MCF7 cells; type: cell-based; details: breast cancer MCF7 cells
Description: (§3) Tyrosine autophosphorylation of the β-subunit of IGF1R as well as downstream signaling induced by IGF1R were assayed in breast cancer MCF7 cells. Tyrosine autophosphorylation of the EGFR and the EGFR signaling was assayed in prostate cancer PC3 cells. Tyrosine autophosphorylation of the PDGFR and its signaling was assayed in fibroblasts overexpres sing PDGFR. Tyro sine autophosphorylation of the IR and its signaling was assayed in fibroblasts overexpressing IR. Cells were seeded in 6-well plates (MCF7-250,000 cells/well, PC3-150,000 cells/well, fibroblasts-140,000 cells/well) and 24 hours later medium was replaced by serum-free medium (DMEM supplemented with 100 units/ml penicillin and 100 μg/ml streptomycin). Following 20 hours of serum-starvation medium was replaced with medium containing various concentrations of the inhibitors in 0.1% DMSO for additional 4 hours. Cells were then stimulated for 5 min with 50 ng/ml IGF-1 (MCF7 cells), 20 ng/ml EGF (PC3 cells), 50 ng/ml PDGF (fibroblasts overexpressing PDGFR) or 100 nM insulin (fibroblasts overexpressing IR), washed twice with PBS and lysed by boiling sample buffer (10% glycerol, 50 mM Tris-HCl, pH 6.8, 3% SDS, and 5%, β-mercaptoethanol). Equal amounts of protein per lane were separated by 8% SDS-PAGE and transferred to a nitrocellulose membrane (Sartorius AG). Phosphorylated proteins were immunoblotted with anti-phospho-IGF1R (phosphor-IGF1R), anti-phosphotyrosine-IRS1 (phospho-IRS1), anti-phospho(T308)Akt (phospho-PKB), anti-phospho-Erk (phospho-ERK), anti-phosphotyrosine 4G10&PY20 (pY-EGFR or pY-PDGFR), anti-phospho-Ser^636/639-IRS1 (pS^636/639-IRS1) and anti-phospho-STAT3 (phospho-STAT3) antibodies. Detection was performed with horseradish peroxidase-conjugated secondary antibody using the ECL system. Blots were then stripped of antibodies, blocked with TBST with 5% low fat milk and re-probed with antibodies detecting both the phosphorylated and the non-phosphorylated corresponding proteins e.g. IGF1Rβ, IRS1, PKB, ERK, IRβ, PDGFR and Stat3.
(§4) In addition, lysates were prepared from cells exposed to inhibitors at various concentrations for 24 hours in the presence or the absence of FCS without stimulation. Lysate preparation and western blot were the same as described above. Apoptosis was detected by immunoblotting with rabbit anti-PARP antibodies.

IRS1 [2] = test: IRS1 Ser-phosphorylation in YUMAC cells; type: cell-based, human; details: metastatic melanoma YUMAC cells
Description: as §4

IGF1R [3] = target: T1, IGF1R (Homo sapiens, UniProt P08069); test: IGF1R cellular free kinase assay (pGT substrate phosphorylation); type: biochemical; details: partially purified IGF1R; 20 μM ATP; read-out: IC50 values of IGF1R activity in cellular free kinase assay
T1 construct: made in house
T1 sequence (P08069 31-1367, species assumed): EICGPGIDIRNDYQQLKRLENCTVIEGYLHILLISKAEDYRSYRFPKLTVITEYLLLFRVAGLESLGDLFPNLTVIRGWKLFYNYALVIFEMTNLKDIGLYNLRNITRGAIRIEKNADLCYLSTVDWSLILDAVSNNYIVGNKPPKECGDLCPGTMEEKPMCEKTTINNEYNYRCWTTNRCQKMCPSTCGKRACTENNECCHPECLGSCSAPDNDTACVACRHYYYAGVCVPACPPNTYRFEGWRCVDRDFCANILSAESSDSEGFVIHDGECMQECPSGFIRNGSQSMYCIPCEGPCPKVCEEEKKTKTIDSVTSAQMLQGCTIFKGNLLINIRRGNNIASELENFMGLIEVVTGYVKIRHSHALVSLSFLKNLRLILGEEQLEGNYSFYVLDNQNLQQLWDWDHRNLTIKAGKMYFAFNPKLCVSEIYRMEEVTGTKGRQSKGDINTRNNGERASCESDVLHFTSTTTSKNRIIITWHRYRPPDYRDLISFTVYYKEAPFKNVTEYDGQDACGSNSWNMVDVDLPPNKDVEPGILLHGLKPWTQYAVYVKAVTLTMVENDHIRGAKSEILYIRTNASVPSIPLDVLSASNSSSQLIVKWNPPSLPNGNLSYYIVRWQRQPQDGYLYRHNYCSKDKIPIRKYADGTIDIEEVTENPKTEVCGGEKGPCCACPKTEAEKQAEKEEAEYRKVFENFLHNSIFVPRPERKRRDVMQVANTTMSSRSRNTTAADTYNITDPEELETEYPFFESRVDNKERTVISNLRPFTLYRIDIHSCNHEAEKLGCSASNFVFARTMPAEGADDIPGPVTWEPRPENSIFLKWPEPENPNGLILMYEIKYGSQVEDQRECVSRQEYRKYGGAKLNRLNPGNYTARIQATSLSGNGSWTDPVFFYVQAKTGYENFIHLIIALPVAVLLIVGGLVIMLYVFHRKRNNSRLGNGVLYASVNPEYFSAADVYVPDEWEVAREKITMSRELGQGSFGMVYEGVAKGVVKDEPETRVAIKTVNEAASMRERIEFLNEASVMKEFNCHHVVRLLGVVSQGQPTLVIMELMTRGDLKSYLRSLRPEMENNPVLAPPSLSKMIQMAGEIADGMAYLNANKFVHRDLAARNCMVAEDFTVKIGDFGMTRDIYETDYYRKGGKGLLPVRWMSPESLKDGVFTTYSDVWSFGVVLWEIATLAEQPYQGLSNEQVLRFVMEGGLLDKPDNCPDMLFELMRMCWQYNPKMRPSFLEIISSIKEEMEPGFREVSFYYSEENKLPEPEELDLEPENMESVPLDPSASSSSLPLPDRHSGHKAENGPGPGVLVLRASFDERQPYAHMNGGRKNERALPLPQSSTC
Description: The general protein-tyrosine kinase substrate, poly(Glu,Tyr) 4:1 (pGT), was coated onto a 96-well Maxisorp plates (Nunc) by adding 125 μl of 0.1 mg/ml pGT in PBS to each well. Plates were sealed and incubated for 16 hours at 37° C., washed once with TBST (10 mM Tris-HCl, pH 7.5, 50 mM NaCl, and 0.1% Triton X-100) and once with DDW, dried for 2-3 hours, and stored at 4° C. […] The plate was then washed with TBS with 0.2% Tween 20 (TBST) and blocked with 0.5% BSA in TBST. Mouse monoclonal anti-phosphotyrosine antibody, conjugated to Horse radish peroxidase (PT-66, 1:50000) was added to the plate. Following incubation for 45 min at room temperature, the plate was washed repeatedly with TBST. Detection was carried out with a color reagent, 2,2′-azido-bis-3-ethylbenzithiazoline-6-sulfonic acid, in citrate-phosphate buffer, pH 4.0, with 0.004% H2O2 for 10 min and monitored at 405 nm, all at room temperature. IC50 values of inhibitors were calculated using the REGRESSION program. The assay was optimized with respect to the amount of IGF-1R (partially purified from cells overexpressing IGF1R), reaction time, and ATP concentration. The signal was linear for 30 min in the range of IGF1R protein concentrations up to 35 ng/well.

[4] = tested on: metastatic melanoma YUMAC cells; test: Apoptosis (cleaved PARP) in YUMAC cells; type: cell-based, human; details: 24 hours of exposure, 3 μM
Description: as §4

YUMAC = test: Proliferation assay YUMAC; type: cell-based; details: Homo sapiens; Table 4; 72 hours incubation; read-out: Inhibition of human metastatic melanoma cells, YUMAC IC50
Description: as §1, §2

IGF1R [5] = target: T1, IGF1R; test: Inhibition of IGF1-induced signaling in intact MCF7 cells (western blot); type: cell-based; details: 4 h exposure, IGF1 stimulation
Description: as §3

IC50 (IGF1R [3]) [µM]	Inhibition of IGF1R autophosphorylation and IGF1-induced signaling (IRS1 pTyr, Akt/PKB, MAPK/ERK) (IGF1R [5])	SMILES	IC50 (YURIF) [µM]	IRS1 Ser-phosphorylation (IRS1 [1])	IRS1 Ser-phosphorylation (IRS1 [2])	Cleavage of PARP (apoptosis) [4]	IC50 (YUMAC) [µM]
0.033		Oc1cc(CNC(=S)/C=C/c2cc(O)c(O)c(I)c2)cc(O)c1O [Compound 10]	0.47	trigger IRS1-ser phosphorylation	trigger IRS1-ser phosphorylation; also recorded: detected	detected	0.3
0.03 to 0.2		N#C/C(=C\c1cc(O)c(O)c(Cl)c1)C(=S)NCc1cc(O)c(O)c(O)c1 [Compound 11]	1.2	trigger IRS1-ser phosphorylation	trigger IRS1-ser phosphorylation		1.2
0.169		N#C/C(=C\c1cc(O)c(O)c(F)c1)C(=S)NCc1cc(O)c(O)c(O)c1 [Compound 12]					
0.068		N#C/C(=C\c1cc(O)c(O)c(C(F)(F)F)c1)C(=S)NCc1cc(O)c(O)c(O)c1 [Compound 13]	0.87	trigger IRS1-ser phosphorylation	trigger IRS1-ser phosphorylation; also recorded: detected	detected	1
0.115		N#C/C(=C\c1cc(O)c(O)c(Br)c1)C(=S)NCc1ccc(O)c(O)c1 [Compound 15]					
0.193		N#C/C(=C\c1cc(O)c(O)c(I)c1)C(=S)NCc1ccc(O)c(O)c1 [Compound 16]					
0.049		N#C/C(=C\c1cc(O)c(O)c(O)c1)C(=S)NCc1cc(O)c(O)c(Br)c1 [Compound 17]	> 10				> 10
0.196		Oc1cc(/C=C/C(=S)NCc2cc(O)c(O)c(Br)c2)cc(Br)c1O [Compound 18]					
0.7		N#C/C(=C\c1cccc(Br)c1)C(=S)NCc1cc(O)c(O)c(O)c1 [Compound 19]	> 10				~10
	had no effect on the signaling	N#C/C(=C\c1ccc2oc(=S)[nH]c2c1)C(=O)c1ccc(O)c(O)c1 [Compound 20, reference compound]					
